Data taken from PMC12689286, “Enhanced therapeutics of cabazitaxel via polycarboxylate conjugation: improved solubility, safety, and antitumor efficacy” (Frontiers in Immunology, 2025).

Legend:
Tissue distribution = details: for concentration at 15 min / concentration at 2 h / concentration at 4 h / concentration at 12 h: both, SD, rat, iv, 6 μmol/kg
Description: Male and female SD rats (200–220 g) received intravenous injections of CTX or CTX-DTPA (6 μmol/kg). CTX was dissolved in 2.5% Tween 80/2.5% EtOH/saline, while CTX-DTPA used saline alone. Blood samples were collected at 5 min to 24 h post-dose. Tissues (heart, liver, spleen, lung, kidney, thymus) and excreta were collected at 15 min, 2 h, 4 h, and 12 h. Plasma and tissue samples were processed by liquid-liquid extraction with n-butanol and analyzed via LC-MS/MS (Agilent Poroshell 120 EC-C18 column; 0.05% formic acid/acetonitrile gradient). Pharmacokinetic parameters were calculated using DAS 2.0 via non-compartmental analysis.

[1] = Lipid-aqueous (octanol/water) partition coefficient; assay type: physicochemical; details: room temperature
Description: CTXs were dissolved in octanol, and an equal volume of water was added, followed by shaken at 100 rpm for 24 h at room temperature. The upper octanol phase and lower water phase were separated by centrifugation. The supernatant was analyzed by HPLC (Bruker SolanX 70 FT-MS; Agilent 6540TOF) ([21]).

[2] = DU145 xenograft model, body weight; assay type: in vivo, BALB/c nude mice; details: 3 μmol/kg, by day 7
Description: All animal experiments were conducted in accordance with protocols approved by the Institutional Animal Care and Use Committee of Peking Union Medical College. Male BALB/c nude mice (6–8 weeks old) and female KM mice (6–8 weeks old) were purchased from Charles River Laboratories (Beijing, China) and maintained under specific pathogen-free conditions.
DU145 Prostate cancer model: DU145 cells (3×10^6 cells/mouse) were subcutaneously inoculated into the right flank of BALB/c nude mic. When tumors reached approximately 100 mm³, mice were randomly divided into four treatment groups (n=6/group): (a) Vehicle control; (b) CTX (3 μmol/kg); (c) CTX-TTHA (3 μmol/kg); (d) CTX-DTPA (3 μmol/kg). Treatments were administered via tail vein injection three times at 3-day intervals. Major organs were collected for histopathological examination after the final administration.

3T3 = assay: MTS cytotoxicity, 3T3 (non-tumor); assay type: cell-based; details: Mus musculus, NIH3T3, 3T3 non-tumor cell line
Excretion (urine, feces) = assay type: in vivo; details: SD rats, 6 μmol/kg iv
Description: Male and female SD rats (200–220 g) received intravenous injections of CTX or CTX-DTPA (6 μmol/kg). […] Blood samples were collected at 5 min to 24 h post-dose. Tissues (heart, liver, spleen, lung, kidney, thymus) and excreta were collected at 15 min, 2 h, 4 h, and 12 h. Plasma and tissue samples were processed by liquid-liquid extraction with n-butanol and analyzed via LC-MS/MS (Agilent Poroshell 120 EC-C18 column; 0.05% formic acid/acetonitrile gradient). Pharmacokinetic parameters were calculated using DAS 2.0 via non-compartmental analysis.

HCT 116 = assay: MTS cytotoxicity, HCT 116; assay type: cell-based; details: Homo sapiens; HCT 116, MTS
Description: (§1) Human cancer cell lines were cultured in basic medium (10% fetal bovine serum (FBS)+1% double antibody solution) (Biological Industries) at 37°C in a 5% CO2 incubator. Effects of CTXs on cell proliferation and viability were measured by an MTS (Promega Corporation) assay. Absorbance values at 490 nm were measured using a microplate reader (Thermo Scientific, Varioskan Flash) ([22]).

A549 = assay: MTS cytotoxicity, A549; assay type: cell-based; details: Homo sapiens
Description: as §1

[3] = Systemic toxicity in H22 tumor-bearing mice (body weight, blood count); assay type: in vivo, KM mice
Description: (§2) H22 hepatoma model: Female KM mice were subcutaneously implanted with H22 cells (2×10^6 cells/mouse) and assigned to six groups: (a) Vehicle control; (b) CTX (9.6 μmol/kg in 5% glucose with 2.5% ethanol/2.5% Tween 80); (c) CTX-TTHA (9.6 μmol/kg in saline); (d) CTX-DTPA (9.6 μmol/kg in saline); (e) CTX-TTHA (19.1 μmol/kg in saline); (f) CTX-DTPA (19.1 μmol/kg in saline).
Treatments were administered every other day for four doses (three doses for CTX group due to weight loss >15%). Peripheral blood samples were collected for complete blood count analysis using an automated hematology analyzer.

thymus = assay: Thymic toxicity in H22 tumor-bearing mice (thymus weight, thymocyte apoptosis); assay type: in vivo, KM mice
Description: as §2
Gently mix 1×10^6 thymocytes with FITC Anexin V (5 μl) and PI (10 μl), and incubate in the dark for 15 minutes, RT. Analyze by flow cytometry. Thymocytes were stained with anti-mouse CD3e cyanine 5.5 (eBioscience, 85-45-0031-82), anti-CD4 PE (eBioscience, 85-12-0042-82), anti-CD8a FITC (4°C 30 min) and detected by flow cytometry.

SK-OV-3 = assay: MTS cytotoxicity, SK-OV-3; assay type: cell-based; details: Homo sapiens; SK-OV-3, MTS
Description: as §1

[4] = system: rat red blood cells (RBCs); assay: Hemolysis test; assay type: cell-based, SD rats; details: vs unmodified CTX
Description: The hemolytic potential of CTX formulations was evaluated using rat red blood cells (RBCs). Briefly, whole blood was collected from the abdominal aorta of anesthetized SD rats into ACD anticoagulant (blood:ACD = 1:4, v/v). The blood was diluted with normal saline (4:5, v/v) and centrifuged at 450 g for 10 min. The RBC pellet was washed three times with normal saline until the supernatant was clear. The washed RBCs were then resuspended in normal saline to prepare a 2% (v/v) suspension.
For the assay, 500 μL of the 2% RBC suspension was mixed with an equal volume of serially diluted drugs or controls in 1.5 mL tubes. The controls included: Negative control (0% hemolysis): normal saline. Positive control (100% hemolysis): distilled water. Solvent control: the vehicle for unmodified CTX (2.5% Tween 80 + 2.5% anhydrous ethanol + 95% normal saline). The mixtures were incubated at 37 °C for 1.5 h and then centrifuged at 450 g for 5 min. Subsequently, 150 μL of the supernatant from each tube was transferred to a 96-well plate, and the absorbance at 545 nm (OD545) was measured using a microplate reader. The percentage of hemolysis was calculated using the following formula: Hemolysis (%) = [(ODsample - ODnegative control)/(ODpositive control - ODnegative control)] × 100.

## CO[C@H]1C(=O)[C@]2(C)[C@@H](OC)C[C@H]3OC[C@@]3(OC(C)=O)[C@H]2[C@H](OC(=O)c2ccccc2)[C@]2(O)C[C@H](OC(=O)[C@H](O)[C@@H](NC(=O)OC(C)(C)C)c3ccccc3)C(C)=C1C2(C)C [CTX, Cabazitaxel]
Tissue distribution; heart
  concentration at 15 min: 43.2 ± 12.9 ng/g
  concentration at 2 h: 24.6 ± 2.33 ng/g
  concentration at 4 h: 16 ± 1.91 ng/g
  concentration at 12 h: 12.6 ± 2.69 ng/g
Tissue distribution; kidney
  concentration at 15 min: 550 ± 12 ng/g
  concentration at 2 h: 313 ± 47.5 ng/g
  concentration at 4 h: 308 ± 41.5 ng/g
  concentration at 12 h: 218 ± 15.9 ng/g
Tissue distribution; liver
  concentration at 15 min: 149 ± 7.27 ng/g
  concentration at 2 h: 78.7 ± 10.6 ng/g
  concentration at 4 h: 48.7 ± 11.5 ng/g
  concentration at 12 h: 29.3 ± 11.5 ng/g
Tissue distribution; lung
  concentration at 15 min: 133 ± 15 ng/g
  concentration at 2 h: 117 ± 4.61 ng/g
  concentration at 4 h: 106.8 ± 0.42 ng/g
  concentration at 12 h: 79 ± 30.9 ng/g
Tissue distribution; spleen
  concentration at 15 min: 250 ± 38.3 ng/g
  concentration at 2 h: 160 ± 2.24 ng/g
  concentration at 4 h: 113 ± 21 ng/g
  concentration at 12 h: 54 ± 8.47 ng/g
Tissue distribution; thymus
  concentration at 15 min: 87.8 ± 23.5 ng/g
  concentration at 2 h: 129 ± 50 ng/g
  concentration at 4 h: 110 ± 41.8 ng/g
  concentration at 12 h: 67.2 ± 4.15 ng/g
[1]
  logP at 24 h: 4.55 ± 0.1
[2]
  body weight loss: > 15%
3T3
  IC50: 8.7 ± 3.2 nM
Excretion (urine, feces); in 24 h
  total excretion of administered dose: < 1 % of dose
HCT 116
  IC50: 2.2 ± 1.1 nM
A549
  IC50: 2.5 ± 1.2 nM
[3]; H22 mice, day 7 post-treatment, controls 4.46 ± 1.19
  white blood cell count: 1.55 ± 0.17 ×10^9/L
[3]; H22 tumor-bearing mice, 9.6 μmol/kg
  body weight loss: 11-16%
thymus
  thymic weight relative to normal (thymic atrophy): 31 % of normal weight
thymus; Annexin V/PI flow cytometry
  thymocyte apoptosis rate: 66.8%
SK-OV-3
  IC50: 4.4 ± 0.9 nM

## COC1C(=O)C2(C)C(OC)CC3OCC3(OC(C)=O)C2C(OC(=O)c2ccccc2)C2(O)CC(OC(=O)C(OC(=O)CN(CCN(CCN(CC(=O)O)CC(=O)O)CC(=O)O)CC(=O)O)C(NC(=O)OC(C)(C)C)c3ccccc3)C(C)=C1C2(C)C (stereo not shown) [CTX-DTPA]
Tissue distribution; in vivo, tissue concentration, spleen, 15 min, SD rats 6 μmol/kg iv, dosed compound
  concentration at 15 min: 0.39 ± 0.04 ng/g
Tissue distribution; in vivo, tissue concentration, thymus, 15 min, SD rats 6 μmol/kg iv, dosed compound
  concentration at 15 min: 0.62 ± 0.05 ng/g
Tissue distribution; heart, 15 min, SD rats 6 μmol/kg iv, dosed compound
  tissue concentration: * 0.27 ± 0.04 μg/kg
Tissue distribution; heart, 2 h, SD rats 6 μmol/kg iv, dosed compound
  tissue concentration: *** 0.07 ± 0.03 μg/kg
Tissue distribution; heart, 4 h, SD rats 6 μmol/kg iv, dosed compound
  tissue concentration: *** 0.04 ± 0.00 μg/kg
Tissue distribution; heart, 12 h, SD rats 6 μmol/kg iv, dosed compound
  tissue concentration: ** 0.06 ± 0.03 μg/kg
Tissue distribution; kidney, 15 min, SD rats 6 μmol/kg iv, dosed compound
  tissue concentration: **** 41.08 ± 9.73 μg/kg
Tissue distribution; kidney, 2 h, SD rats 6 μmol/kg iv, dosed compound
  tissue concentration: ** 4.96 ± 1.67 μg/kg
Tissue distribution; kidney, 4 h, SD rats 6 μmol/kg iv, dosed compound
  tissue concentration: *** 1.55 ± 0.31 μg/kg
Tissue distribution; kidney, 12 h, SD rats 6 μmol/kg iv, dosed compound
  tissue concentration: **** 1.36 ± 0.84 μg/kg
Tissue distribution; liver, 15 min, SD rats 6 μmol/kg iv, dosed compound
  tissue concentration: *** 37.74 ± 16.89 μg/kg
Tissue distribution; liver, 2 h, SD rats 6 μmol/kg iv, dosed compound
  tissue concentration: ** 7.21 ± 1.30 μg/kg
Tissue distribution; liver, 4 h, SD rats 6 μmol/kg iv, dosed compound
  tissue concentration: * 6.74 ± 5.04 μg/kg
Tissue distribution; liver, 12 h, SD rats 6 μmol/kg iv, dosed compound
  tissue concentration: * 0.65 ± 0.42 μg/kg
Tissue distribution; lung, 15 min, SD rats 6 μmol/kg iv, dosed compound
  tissue concentration: *** 2.36 ± 1.29 μg/kg
Tissue distribution; lung, 2 h, SD rats 6 μmol/kg iv, dosed compound
  tissue concentration: **** 0.48 ± 0.50 μg/kg
Tissue distribution; lung, 4 h, SD rats 6 μmol/kg iv, dosed compound
  tissue concentration: **** 0.13 ± 0.01 μg/kg
Tissue distribution; lung, 12 h, SD rats 6 μmol/kg iv, dosed compound
  tissue concentration: * 1.10 ± 0.45 μg/kg
Tissue distribution; spleen, 15 min, SD rats 6 μmol/kg iv, dosed compound
  tissue concentration: *** 0.39 ± 0.04 μg/kg
Tissue distribution; spleen, 2 h, SD rats 6 μmol/kg iv, dosed compound
  tissue concentration: **** 0.09 ± 0.03 μg/kg
Tissue distribution; spleen, 4 h, SD rats 6 μmol/kg iv, dosed compound
  tissue concentration: ** 0.05 ± 0.02 μg/kg
Tissue distribution; spleen, 12 h, SD rats 6 μmol/kg iv, dosed compound
  tissue concentration: ** 0.05 ± 0.03 μg/kg
Tissue distribution; thymus, 15 min, SD rats 6 μmol/kg iv, dosed compound
  tissue concentration: ** 0.62 ± 0.05 μg/kg
Tissue distribution; thymus, 2 h, SD rats 6 μmol/kg iv, dosed compound
  tissue concentration: * 0.10 ± 0.07 μg/kg
Tissue distribution; thymus, 4 h, SD rats 6 μmol/kg iv, dosed compound
  tissue concentration: * 0.05 ± 0.01 μg/kg
Tissue distribution; thymus, 12 h, SD rats 6 μmol/kg iv, dosed compound
  tissue concentration: **** 0.06 ± 0.04 μg/kg
[1]
  logP at 24 h: 0.49 ± 0.12
3T3
  IC50: 8.3 ± 2.7 nM
Excretion (urine, feces); cumulative
  urinary excretion of intact CTX-DTPA: 2191.14 ± 853.66 µg/kg
Excretion (urine, feces); within 24 hours
  renal excretion: 39.8 ± 12.7%
HCT 116
  IC50: 3.7 ± 1 nM
[4]
  improvement in hemocompatibility over unmodified CTX: 64 fold
A549
  IC50: 3 ± 1.1 nM
[3]; H22 mice, throughout treatment, across all dose groups (9.6 and 19.1 μmol/kg)
  WBC counts: 3.50-5.60 ×10^9/L
SK-OV-3
  IC50: 5.4 ± 1.3 nM
